Test results from patent US6440437B1, “Wet wipes having skin health benefits” (Kimberly-Clark Worldwide, Inc., priority 2000, dated 2002).

Test system: EpiDerm™ skin model (Epi-200)
Experiment: EpiDerm skin model: barrier against trypsin and IL-1α pro-inflammatory response
Format: cell-based, human
Details: 15 microliters formulation 30 min before 10 microliters of 200 μg/ml trypsin; media assayed by ELISA after 6 hours
Protocol: The EpiDerm™ skin model (Epi-200, Mattek Corporation, Ashland, Mass.) was used to assess the ability of the lipid-enriched wet wipe formulations to enhance skin barrier against permeation of trypsin (a skin irritating, fecal enzyme) and prevent a Interleukin-1α (IL-1α) response which is a measure of inflammation.
Test formulations (15 microliters) were added to the surface of the EpiDerm™ skin model and incubated for 30 minutes at 37° C., 5% CO2 prior to dosing with the fecal enzyme, trypsin. The study was conducted using Epi-200 assay media devoid of hydrocortisone and pH indicator that was prepared by the manufacturer. After 30 minutes, the underlying media was removed and replaced with fresh, pre-warmed media followed by application of 10 microliters of 200 μg/ml of trypsin. The skin wells were incubated for 6 hours before the underlying media was removed and stored for further analysis. […] Also, the amount of IL-1α in the media was measured using commercially available ELISA kits (Quantikine™ Human IL-1α Immunoassay, R&D Systems, Minneapolis, Minn.) specific for IL-1α to assess the ability of the formulations to prevent a pro-inflammatory response by the enzyme compared to the no treatment control.

## trypsin
  Irritation: Pro-inflammatory Response (IL-1α), Average IL-1α: 108.7
